Reference: ChEMBL document CHEMBL3430912, “GSK Tres Cantos Anti-Kinetoplastid Screening (TCAKS) Data”

Assays:
Leishmania donovani [1] = assay: (§1) GSK_TCAKS: pIC50 Leishmania donovani Imaging: Infected Macrophages. Assay plates (384-well) were prepared by adding 250nL of compound to each well. For single shot assay, the final compound concentration was 5 uM. […] Automated image analysis was performed with a script developed on Acapella High Content Imaging and Analysis Software (PerkinElmer). Output: Percent of infected macrophage cells were reported for each well.; assay type: functional, organism-based, Homo sapiens; conditions: THP-1
Leishmania donovani [2] = assay: as §1, with “THP-1 Host” for “Infected”, “THP-1 cell count” for “Percent of infected macrophage cells”; assay type: functional, organism-based, Homo sapiens
Trypanosoma cruzi [3] = assay: (§2) GSK_TCAKS: pIC50 Trypanosoma cruzi Imaging: Infected Cells. […] Cells were then washed once with PBS before infection. T. cruzi trypomastigotes, collected at days 5 to 8 after infection from LLC-MK2 parasite infected cultures, were allowed to swim out for 4h at 37C from a centrifuged pellet (2,500 rpm/10 min/room temperature). Trypomastigotes were then collected and counted in a CASY Cell Counter. Trypomastigotes, in supplemented DMEM, were added to H9c2 cultures in a multiplicity of infection of 1 and incubated for 18 h. Cells were washed once with PBS before incubation of the infected H9c2 monolayer with trypsin (Life-Technologies) to detach cells from the flask. Cells were counted in a CASY Cell Counter using a 150 um capillary and their density set at 5 * 10^4 cells per mL in supplemented assay DMEM. Infected H9c2 were dispensed into 384-well poly-lysine coated assay plates at 50uL per well using a Multidrop Combi dispenser. After seeding them, the plates were incubated at 37C, 5% CO2 for 72h. Cultures were then fixed and stained by addition of 50 uL of a solution containing 8% formaldehyde and 4 uM DRAQ5 DNA dye (BioStatus, UK) per well. […] Five images were collected per well for reliable statistical analysis. Automated image analysis was performed with a script developed on Acapella High Content Imaging and Analysis Software (PerkinElmer). Output: percentage of infected cells per well as a second infection marker.; assay type: functional, organism-based, Rattus norvegicus; conditions: H9c2, 4 h
Leishmania donovani [4] = assay: GSK_TCAKS: pIC50 Leishmania donovani viability assay using fluorescence intensity. Assay plates (1536-well) were prepared by adding 30nL per well of compound. For single shot assay, the final compound concentration was 5uM. […] Briefly, eGFP LdBOB axenic amastigotes were harvested, fixed and counted in a CASY cell counter (Roche-Applied Science). A final concentration of 1.5 * 10^5 cells per well were prepared in amastigote media containing 500 U/mL penicillin/streptomycin (Invitrogen) and 6uL was dispensed to each experimental well using a Multidrop Combi dispenser (Thermo Scientific). 6uL of assay media was dispensed to control columns used as reference for 100% compound response. Following incubation for 72 h at 37C, 5% CO2, 2 uL of resazurin was added to each well at a final concentration of 0.5 mM in phosphate buffered saline (PBS) with IGEPAL (Sigma-Aldrich), 0.05% (v/v).; assay type: functional, organism-based
Trypanosoma cruzi [5] = assay: GSK_TCAKS: pIC50 Trypanosoma cruzi viability assay using beta-GAL activity. This assay was run at single shot at 5uM compound concentration per well. The biological reagents consisted of NIH-3T3 host cells and trypomastigotes parasitic cells; both cell types were set to a 3.3 * 10^5 cells/mL dilution in assay DMEM by means of a CASY cell counter device using a 60um capillary. 6 uL of the mixture were dispensed per well (about 1 * 10^3 host-cells and 1 * 10^3 parasites) with a Multidrop Combi dispenser. […] In all wells, the percentage of DMSO never exceeded 0.5%. Plates incubated for four days at 37C, 5% CO2. The substrate used for the assay fluorescence intensity (FLINT) readout was resorufin-beta-D-galactopiranoside (Sigma-Aldrich) at 5uM per well. It was diluted in PBS supplemented with the soft detergent Igepal (Fluka).; assay type: functional, organism-based, Mus musculus; conditions: Tulahuen, NIH3T3
Trypanosoma cruzi [6] = assay: as §2, with “H2C9” for “Trypanosoma cruzi”, “H9c2 Host Cardiomyocytes.” for “Infected Cells.”, “Number” for “percentage”, “H9c2 Host Cardiomyocytes nuclei to determine drug-related cytotoxicity.” for “infected cells per well as a second infection marker.”; assay type: functional, organism-based, Rattus norvegicus; conditions: H9c2, 4 h
[7] = test system: Trypanosoma brucei brucei; assay: GSK_TCAKS: pIC50 Trypanosoma brucei viability assay using fluorescence intensity. Assay plates (1536-well) were prepared by dispensing 25nL of compound solution per well using an Echo acoustic dispenser (Labcyte).; assay type: functional, organism-based; conditions: Lister 427, 2 h
[8] = test system: Trypanosoma brucei brucei; assay: GSK_TCAKS: pIC50 Trypanosoma brucei viability assay using luminiscence. Assay plates (1536-well) were prepared. T. brucei cultures were harvested and counted in a CASY cell counter. A parasite suspension was prepared at a final concentration of 5 * 10^4 cells/mL in complete HMI9 medium and 6uL was dispensed to all wells containing compounds using a Multidrop Combi dispenser. 6uL of HMI9 media with 0.4% DMSO were dispensed to control columns. Plates were incubated for 24 h at 37C, 5% CO2 then tempered for 10 min at room temperature. ATP content was quantified by adding 4 uL of CellTiter-Glo Reagent (Promega) according to the manufacturer's instructions. Luminescence was measured using a ViewLux.; assay type: functional, organism-based; conditions: Lister 427, CASY
[9] = target: Sterol 14-alpha demethylase (Trypanosoma cruzi (strain CL Brener), UniProt Q7Z1V1); assay: GSK_TCAKS: pIC50 CYP51 from Trypanosoma cruzi.; assay type: functional
Leishmania donovani [10] = assay: as §1, with “Amastigotes/Macrophages.” for “Infected Macrophages.”, “Average number” for “Percent”, “amastigotes per” for “infected”, “cell” for “cells”; assay type: functional, organism-based, Homo sapiens; conditions: THP-1
Trypanosoma cruzi [11] = assay: GSK_TCAKS: pIC50 Trypanosoma cruzi Imaging: Amastigotes/Cell. […] Cells were then washed once with PBS before infection. T. cruzi trypomastigotes, collected at days 5 to 8 after infection from LLC-MK2 parasite infected cultures, were allowed to swim out for 4h at 37C from a centrifuged pellet (2,500 rpm/10 min/room temperature). Trypomastigotes were then collected and counted in a CASY Cell Counter. Trypomastigotes, in supplemented DMEM, were added to H9c2 cultures in a multiplicity of infection of 1 and incubated for 18 h. Cells were washed once with PBS before incubation of the infected H9c2 monolayer with trypsin (Life-Technologies) to detach cells from the flask. Cells were counted in a CASY Cell Counter using a 150 um capillary and their density set at 5 * 10^4 cells per mL in supplemented assay DMEM. Infected H9c2 were dispensed into 384-well poly-lysine coated assay plates at 50uL per well using a Multidrop Combi dispenser. After seeding them, the plates were incubated at 37C, 5% CO2 for 72h. Cultures were then fixed and stained by addition of 50 uL of a solution containing 8% formaldehyde and 4 uM DRAQ5 DNA dye (BioStatus, UK) per well. […] Five images were collected per well for reliable statistical analysis. Automated image analysis was performed with a script developed on Acapella High Content Imaging and Analysis Software (PerkinElmer). Output: number of amastigotes per cell as infection level measurement.; assay type: functional, organism-based, Rattus norvegicus; conditions: H9c2, 4 h
[12] = GSK_TCAKS: pIC50 HepG2 human cell line viability assay using luminiscence. […] Seeding density was checked to ensure that new mono-layers were not more than 50% confluent at the time of harvesting. Cell suspension was added to 500 mL of the same medium at a final density of 1.2 * 10^5 cells/mL. This cell suspension was dispensed (25 uL, 3000 cells per well) into 384-well clear-bottom plates using a Multidrop Combi dispenser. Prior to addition of the cell suspension, the screening compounds (250 nL) were pre-dispensed into the plates with an Echo liquid handler. Plates were incubated for 48 h at 37C, 5% CO2. After incubation, plates equilibrated at room temperature for 30 min before proceeding to develop the luminescent signal. The signal developer, CellTiter-Glo Reagent, was allowed to equilibrate at room temperature for 30 min and added to the plates (25uL per well) using a Multidrop Combi dispenser. Plates were left for 10 min at room temperature for stabilization and then read using a ViewLux.; assay type: toxicity, cell-based

Sterol 14-alpha demethylase, sequence (Q7Z1V1 whole entry): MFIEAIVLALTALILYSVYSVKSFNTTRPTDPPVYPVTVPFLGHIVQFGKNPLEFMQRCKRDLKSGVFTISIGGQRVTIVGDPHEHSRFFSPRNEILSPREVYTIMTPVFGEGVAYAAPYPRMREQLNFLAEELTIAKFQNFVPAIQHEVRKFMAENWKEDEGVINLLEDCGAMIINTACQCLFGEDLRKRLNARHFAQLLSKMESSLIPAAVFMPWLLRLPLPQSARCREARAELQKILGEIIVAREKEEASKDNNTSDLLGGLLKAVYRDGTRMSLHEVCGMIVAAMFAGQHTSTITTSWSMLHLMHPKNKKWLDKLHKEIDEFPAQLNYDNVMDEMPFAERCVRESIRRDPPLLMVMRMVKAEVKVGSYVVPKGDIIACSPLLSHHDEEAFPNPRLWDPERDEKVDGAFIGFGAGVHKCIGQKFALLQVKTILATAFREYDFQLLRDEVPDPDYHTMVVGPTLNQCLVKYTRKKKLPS

| Structure (SMILES) | IC50 (Leishmania donovani [1]) [µM] | IC50 (Leishmania donovani [2]) [µM] | IC50 (Trypanosoma cruzi [3]) [µM] | IC50 (Leishmania donovani [4]) [µM] | IC50 (Trypanosoma cruzi [5]) [µM] | IC50 (Trypanosoma cruzi [6]) [µM] | IC50 [7] [µM] | IC50 [8] [µM] | IC50 [9] [µM] | IC50 (Leishmania donovani [10]) [µM] | IC50 (Trypanosoma cruzi [11]) [µM] | IC50 at 48 h [12] [µM] |
| --- | --- | --- | --- | --- | --- | --- | --- | --- | --- | --- | --- | --- |
| c1ccc(-c2nc(NCc3ccco3)c3ccccc3n2)nc1 | 2.51 | 31.6 | 3.16 | 3.16 | 6.31 | 2 | > 39.8 | 6.31 | > 100 | 2.51 | 3.98 | > 100 |
| O=C(NCCc1csc(-c2cccc(F)c2)n1)c1ccco1 | > 50.1 | > 50.1 | 1.58 | > 50.1 | 1.58 | 10 | 0.501 | 0.631 | > 100 | > 50.1 | 1.26 | > 100 |
| O=C(Nc1ccccc1)Nc1nc(-c2ccccn2)cs1 | 0.398 | 6.31 | 1 | 1.58 | 0.631 | 1 | 1 | 1 | 31.6 | 0.251 | 0.631 | 25.1 |
| CN(C)c1ccc(N)cc1CN(CC1CCCO1)S(C)(=O)=O (centres undefined) | 12.6 | > 50.1 | > 50.1 | 3.98 | > 50.1 | > 50.1 | > 39.8 | > 39.8 | > 100 | 10 | > 50.1 | > 100 |
| COc1ccc(C2CC(c3ccccc3Cl)=NN2C(=O)CNC(=O)C2CCCC2)cc1 (centres undefined) | > 50.1 | > 50.1 | 3.16 | > 50.1 | 3.55 | > 50.1 | 0.631 | 0.794 | 63.1 | > 50.1 | 2 | > 100 |
| Cc1nc2c(-c3cccs3)c(C)nn2c(NCCO)c1C | > 50.1 | > 50.1 | 31.6 | > 50.1 | 39.8 | > 50.1 | 0.126 | 0.2 | > 100 | > 50.1 | 15.8 | > 100 |
| O=C(Nc1ccc(C(F)(F)F)cc1)NC1(C(=O)NCc2ccco2)CCCCC1 | > 50.1 | 31.6 | > 50.1 | 39.8 | 7.94 | > 50.1 | 0.794 | 1 | > 31.6 | > 50.1 | > 50.1 | > 100 |
| CCN(CC)c1nc(Nc2ccncc2)nc2ccccc12 | 6.31 | 25.1 | 0.0794 | 0.794 | 0.126 | 7.94 | 2.51 | 5.01 | > 100 | 2 | 0.00501 | 50.1 |
| COc1ccc(C2CC(c3ccc(NS(C)(=O)=O)cc3)=NN2C(=O)c2cccs2)cc1OC (centres undefined) | 5.01 | > 50.1 | 31.6 | 12.6 | 25.1 | > 50.1 | 15.8 | 25.1 | 12.6 | 3.98 | 15.8 | > 100 |
| COc1ccccc1C1CC(c2ccc(NS(C)(=O)=O)cc2)=NN1C(=O)c1cccs1 (centres undefined) | 3.98 | > 50.1 | > 50.1 | 3.98 | 25.1 | > 50.1 | 15.8 | 20 | 25.1 | 2.51 | > 50.1 | > 100 |
| CCS(=O)(=O)Nc1ccc(C2=NN(C(=O)c3cccs3)C(c3ccccc3OC)C2)cc1 (centres undefined) | 7.94 | > 50.1 | > 50.1 | 1.26 | 7.94 | > 50.1 | 5.01 | 15.8 | 25.1 | 7.94 | > 50.1 | > 100 |
| CCOc1ccc(CN(C)Cc2nc(Nc3ccc(C)cc3)[nH]c(=N)n2)cc1 | 3.98 | 39.8 | 5.01 | 31.6 | 6.31 | 3.16 | 2.51 | 2 | 15.8 | 3.16 | 5.01 | 31.6 |
| CCC(CC)C(=O)Nc1cccc(C(=O)Nc2nnc(C3CCCCC3)s2)c1 | > 50.1 | > 50.1 | 25.1 | > 50.1 | 10 | > 50.1 | 0.251 | 0.631 | > 100 | > 50.1 | 15.8 | > 100 |
| CCN(CC)c1nc(N(C)C)nc2c1CN(Cc1ccccc1)CC2 | 6.31 | 39.8 | 20 | 7.94 | 6.31 | > 50.1 | 20 | 20 | 10 | 3.98 | 3.98 | 63.1 |
| Cc1[nH]nc(C(F)(F)F)c1NC(=O)CCn1cc(Cl)c([N+](=O)[O-])n1 | > 50.1 | 15.8 | 25.1 | > 50.1 | 7.94 | > 50.1 | 0.501 | 0.794 | > 100 | > 50.1 | 6.31 | > 100 |
| O=c1ccc2ccc(F)c3c2n1C[C@H]3CN1CCN(CC(O)c2cc3c(cn2)OCS3)CC1 (some centres undefined) | > 50.1 | > 50.1 | 0.631 | 20 | 0.708 | > 50.1 | 0.2 | 0.398 | > 100 | > 50.1 | 0.316 | > 100 |
| COc1cc(Cl)c(C)cc1NC(=O)c1ccc([N+](=O)[O-])s1 | 6.31 | > 50.1 | 0.631 | 7.94 | 0.631 | 2.51 | 0.501 | 10 | 15.8 | 5.01 | 0.501 | 31.6 |
